Patent publication US20210179989A1, “SYSTEM AND METHODS FOR OPTOGENETIC EVALUATION OF HUMAN NEUROMUSCULAR FUNCTION” (priority 2018, published 2021)

Test system: acetylcholine receptors in the NMJ
Assay type: cell-based, human

α-bungarotoxin [BTX]
average number of spontaneous contractions after treatment: 0.17±0.17 | average score (corrected fraction of effective light pulses), after treatment: 0.01±0.01 | light-triggered and spontaneous contractions: completely stopped
